In ChEMBL document CHEMBL1201862, “PubChem BioAssay data set” (2004):
The source made the active and inactive calls.

How the values were obtained:
HEK293 = assay: cells; assay type: functional, cell-based; details: Homo sapiens
[1] = biological target: Nuclear receptor subfamily 0 group B member 1 (Homo sapiens, UniProt P51843); assay: Luminescence-based cell-based high throughput dose response assay for inhibitors of the orphan nuclear receptor subfamily 0, group B, member 1 (DAX1; NR0B1). [Related pubchem assays (depositor defined):AID504766, AID504790]; assay type: functional
Nuclear receptor subfamily 0 group B member 1, sequence (P51843 whole entry): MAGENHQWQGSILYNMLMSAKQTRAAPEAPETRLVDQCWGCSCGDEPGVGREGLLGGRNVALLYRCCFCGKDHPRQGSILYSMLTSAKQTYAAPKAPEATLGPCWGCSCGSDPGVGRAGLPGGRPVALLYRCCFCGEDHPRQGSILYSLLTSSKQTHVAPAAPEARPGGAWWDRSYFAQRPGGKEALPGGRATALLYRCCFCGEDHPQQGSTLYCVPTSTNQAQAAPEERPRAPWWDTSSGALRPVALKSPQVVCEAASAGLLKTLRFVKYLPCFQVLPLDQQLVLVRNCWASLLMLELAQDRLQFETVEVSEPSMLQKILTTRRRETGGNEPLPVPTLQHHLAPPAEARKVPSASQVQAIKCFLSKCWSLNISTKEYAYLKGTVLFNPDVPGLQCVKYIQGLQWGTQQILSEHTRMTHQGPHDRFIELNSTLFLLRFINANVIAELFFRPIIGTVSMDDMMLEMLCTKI

[2] = cytotoxicity in HEK-293T NF-kB-Luc cells, dose response, cytotoxicity control for B/T-cell NF-kB inhibitor project, cell-based, uHTS hits (AID 489019); assay type: functional;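 note: IC50 reflects cytotoxicity as loss of cell viability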
Jurkat = assay: antigen receptor-induced NF-kB inhibitors, dose response, Jurkat, luciferase reporter, luminescence, B- and T-cell (AID 489004); assay type: functional, cell-based; details: Homo sapiens;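 note: NF-kB luciferase reporter Jurkat cells stimulated with PMA plus ionomycin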
[3] = biological target: T1, Microphthalmia-associated transcription factor (Homo sapiens, UniProt O75030); assay: TRPM1 promoter luciferase signal decrease, dose response, MITF inhibitor project, cell-based, SK-MEL-5, cherry-picked, set 3 (AID 493073); assay type: functional
T1 sequence (O75030 whole entry): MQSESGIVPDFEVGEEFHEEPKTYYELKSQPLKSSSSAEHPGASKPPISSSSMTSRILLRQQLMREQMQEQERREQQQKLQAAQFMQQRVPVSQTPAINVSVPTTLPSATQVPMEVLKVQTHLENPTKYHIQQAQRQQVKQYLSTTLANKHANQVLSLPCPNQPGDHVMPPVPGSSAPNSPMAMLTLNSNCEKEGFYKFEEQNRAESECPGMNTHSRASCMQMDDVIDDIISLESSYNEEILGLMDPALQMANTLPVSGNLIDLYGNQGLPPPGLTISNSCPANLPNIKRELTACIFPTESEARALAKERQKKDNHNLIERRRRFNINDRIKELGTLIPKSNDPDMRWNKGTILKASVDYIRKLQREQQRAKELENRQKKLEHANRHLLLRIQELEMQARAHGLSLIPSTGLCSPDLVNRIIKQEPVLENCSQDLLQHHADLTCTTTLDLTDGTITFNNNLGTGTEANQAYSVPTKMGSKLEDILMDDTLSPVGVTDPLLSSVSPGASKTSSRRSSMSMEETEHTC

Row | SMILES | IC50 (HEK293) | IC50 [1] | IC50 [2] | IC50 (Jurkat) | AC50 [3]
1 | CCCCN(C(C)=O)C1CC(=O)N(c2ccc(OCCC)cc2)C1=O (configuration not stated) | > 67.5 µM (inactive) | > 67.5 µM (inactive) |  |  | 
2 | COc1ccc(/C=C2\SC(=O)N(CCCC(=O)Nc3cc(Cl)ccc3C(=O)O)C2=O)cc1 |  |  | > 80 µM (inactive) | < 160 nM (active) | 528 nM (active)
3 | N#C/C(=N/Nc1ccc([N+](=O)[O-])cc1)C(=N)N1CCCCC1 | > 67.5 µM (inactive) | > 67.5 µM (inactive) |  |  | 
